Experimental data reported in patent publication US20260078122A1, “INDAZOLE COMPOUNDS AS PKMYT1 KINASE INHIBITORS” (Hoffmann-La Roche Inc., priority 2023, published 2026).

Test system: not listed separately
Assay: Human microsome stability assay
Details: 1 μM compound, 0.5 mg/mL liver microsomal protein, 1 mM NADPH, 37° C., 0-30 minutes

Clearance of Human microsome [L/h/kg] | Structure (SMILES)
0.369 | Nc1c(-c2cc(F)cc3[nH]ncc23)c2ncc(Cl)cc2[nH]c1=O [Example 036, 3-Amino-7-chloro-4-(6-fluoro-1H-indazol-4-yl)-1H-1,5-naphthyridin-2-one]
0.485 | Cc1cnc2c(-c3ccc(F)c4[nH]ncc34)c(N)c(=O)[nH]c2c1Cl [Example 053, 3-Amino-8-chloro-4-(7-fluoro-1H-indazol-4-yl)-7-methyl-1H-1,5-naphthyridin-2-one]
0.369 | Nc1c(-c2ccc(F)c3[nH]ncc23)c2ncc(N3CCOCC3)cc2[nH]c1=O [Example 019, 3-Amino-4-(7-fluoro-1H-indazol-4-yl)-7-morpholino-1H-1,5-naphthyridin-2-one]
0.369 | Nc1c(-c2ccc(F)c3[nH]ncc23)c2ncc(-c3ccc(F)cn3)cc2[nH]c1=O [Example 014, 3-Amino-4-(7-fluoro-1H-indazol-4-yl)-7-(5-fluoro-2-pyridyl)-1H-1,5-naphthyridin-2-one]
0.369 | Nc1c(-c2ccc(F)c3[nH]ncc23)c2ncc(-c3ccnnc3)cc2[nH]c1=O [Example 012, 3-Amino-4-(7-fluoro-1H-indazol-4-yl)-7-pyridazin-4-yl-1H-1,5-naphthyridin-2-one]
0.369 | CC(C)(O)c1cnc2c(-c3ccc(F)c4[nH]ncc34)c(N)c(=O)[nH]c2c1 [Example 020, 3-Amino-4-(7-fluoro-1H-indazol-4-yl)-7-(1-hydroxy-1-methyl-ethyl)-1H-1,5-naphthyridin-2-one]
0.515 | Cc1cc2[nH]c(=O)c(N)c(-c3ccc(F)c4[nH]ncc34)c2nc1NC(C)C [Example 023, 3-Amino-4-(7-fluoro-1H-indazol-4-yl)-6-(isopropylamino)-7-methyl-1H-1,5-naphthyridin-2-one]
0.369 | Cc1cc2[nH]c(=O)c(N)c(-c3ccc(F)c4[nH]ncc34)c2nc1C(=O)O [Example 089, 7-Amino-8-(7-fluoro-1H-indazol-4-yl)-3-methyl-6-oxo-5H-1,5-naphthyridine-2-carboxylic acid]
0.369 | COc1cnc2c(-c3ccc(F)c4[nH]ncc34)c(N)c(=O)[nH]c2c1 [Example 006, 3-Amino-4-(7-fluoro-1H-indazol-4-yl)-7-methoxy-1H-1,5-naphthyridin-2-one]
0.369 | COc1c(C)cnc2c(-c3ccc(F)c4[nH]ncc34)c(N)c(=O)[nH]c12 [Example 051, 3-Amino-4-(7-fluoro-1H-indazol-4-yl)-8-methoxy-7-methyl-1H-1,5-naphthyridin-2-one]
0.369 | Nc1c(-c2ccc(F)c3[nH]ncc23)c2nccc(Cl)c2[nH]c1=O [Example 050, 3-Amino-8-chloro-4-(7-fluoro-1H-indazol-4-yl)-1H-1,5-naphthyridin-2-one]
0.369 | Nc1c(-c2ccc(F)c3[nH]ncc23)c2ncc(-c3ccn[nH]3)cc2[nH]c1=O [Example 009, 3-Amino-4-(7-fluoro-1H-indazol-4-yl)-7-(1H-pyrazol-5-yl)-1H-1,5-naphthyridin-2-one]
0.369 | Nc1c(-c2cccc3[nH]ncc23)c2ncc(C3CC3)cc2[nH]c1=O [Example 034, 3-Amino-7-cyclopropyl-4-(1H-indazol-4-yl)-1H-1,5-naphthyridin-2-one]
0.369 | Cn1cncc1-c1cnc2c(-c3ccc(F)c4[nH]ncc34)c(N)c(=O)[nH]c2c1 [Example 008, 3-Amino-4-(7-fluoro-1H-indazol-4-yl)-7-(3-methylimidazol-4-yl)-1H-1,5-naphthyridin-2-one]
0.369 | Nc1c(-c2ccc(F)c3[nH]ncc23)c2ncc(F)cc2[nH]c1=O [Example 004, 3-Amino-7-fluoro-4-(7-fluoro-1H-indazol-4-y1)-1H-1,5-naphthyridin-2-one]

Target: T1, recombinant human Myt1 (full length PKMYT1) (Homo sapiens, UniProt Q99640)
T1 sequence (Q99640 1-499): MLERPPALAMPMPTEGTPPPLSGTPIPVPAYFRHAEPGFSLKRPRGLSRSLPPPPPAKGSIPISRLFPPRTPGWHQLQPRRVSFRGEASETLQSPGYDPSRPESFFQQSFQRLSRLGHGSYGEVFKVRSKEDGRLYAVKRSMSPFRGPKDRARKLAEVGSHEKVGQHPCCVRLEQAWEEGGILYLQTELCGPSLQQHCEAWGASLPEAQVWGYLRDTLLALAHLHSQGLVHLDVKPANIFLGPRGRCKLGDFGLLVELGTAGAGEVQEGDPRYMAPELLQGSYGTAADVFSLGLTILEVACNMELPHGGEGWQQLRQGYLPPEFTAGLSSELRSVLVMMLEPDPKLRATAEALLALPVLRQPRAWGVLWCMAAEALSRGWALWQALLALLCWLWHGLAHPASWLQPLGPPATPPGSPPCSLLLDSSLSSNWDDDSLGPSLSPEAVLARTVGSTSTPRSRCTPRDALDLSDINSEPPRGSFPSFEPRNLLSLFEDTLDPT
Assay: ADP-Glo assay (Myt1 kinase activity)
Details: not given

IC50 [µM] | Structure (SMILES)
0.0161 | Nc1c(-c2ccc(F)c3[nH]ncc23)c2ncc(-c3ccn[nH]3)cc2[nH]c1=O [Example 9, 3-Amino-4-(7-fluoro-1H-indazol-4-yl)-7-(1H-pyrazol-5-yl)-1H-1,5-naphthyridin-2-one]
0.0249 | Cc1cc2[nH]c(=O)c(N)c(-c3ccc(F)c4[nH]ncc34)c2nc1C(F)(F)F [Example 097, 3-Amino-4-(7-fluoro-1H-indazol-4-yl)-7-methyl-6-(trifluoromethyl)-1H-1,5-naphthyridin-2-one]
< 0.01 | COc1nc2c(-c3ccc(F)c4[nH]ncc34)c(N)c(=O)[nH]c2cc1C [Example 060, 3-Amino-4-(7-fluoro-1H-indazol-4-yl)-6-methoxy-7-methyl-1H-1,5-naphthyridin-2-one]
0.0188 | Cc1cc2[nH]c(=O)c(N)c(-c3ccc(F)c4[nH]ncc34)c2nc1N1CCOCC1 [Example 25, 3-Amino-4-(7-fluoro-1H-indazol-4-yl)-7-methyl-6-morpholino-1H-1,5-naphthyridin-2-one]
< 0.01 | C=Cc1cnc2c(-c3ccc(F)c4[nH]ncc34)c(N)c(=O)[nH]c2c1C [Example 123, 3-Amino-4-(7-fluoro-1H-indazol-4-yl)-8-methyl-7-vinyl-1H-1,5-naphthyridin-2-one]
0.0378 | Nc1c(-c2cc(F)cc3[nH]ncc23)c2ncc(Cl)cc2[nH]c1=O [Example 36, 3-Amino-7-chloro-4-(6-fluoro-1H-indazol-4-yl)-1H-1,5-naphthyridin-2-one]
0.0157 | Cc1cc2[nH]c(=O)c(N)c(-c3ccc(F)c4[nH]ncc34)c2cc1Br [Example 104, 3-Amino-6-bromo-4-(7-fluoro-1H-indazol-4-yl)-7-methyl-1H-quinolin-2-one]
0.013 | Cc1cc2[nH]c(=O)c(N)c(-c3ccc(F)c4[nH]ncc34)c2nc1-c1cccs1 [Example 151, 3-Amino-4-(7-fluoro-1H-indazol-4-yl)-7-methyl-6-(2-thienyl)-1H-1,5-naphthyridin-2-one]
0.0138 | Cc1cc2[nH]c(=O)c(N)c(-c3ccc(F)c4[nH]ncc34)c2nc1-c1cscn1 [Example 152, 3-Amino-4-(7-fluoro-1H-indazol-4-yl)-7-methyl-6-thiazol-4-yl-1H-1,5-naphthyridin-2-one]
0.0145 | Cc1cc2[nH]c(=O)c(N)c(-c3ccc(F)c4[nH]ncc34)c2cc1C1CCN(CC(F)(F)F)CC1 [Example 106, 3-Amino-4-(7-fluoro-1H-indazol-4-yl)-7-methyl-6-[1-(2,2,2-trifluoroethyl)-4-piperidyl]-1H-quinolin-2-one]
0.0112 | COC(C)(C)C#Cc1nc2c(-c3ccc(F)c4[nH]ncc34)c(N)c(=O)[nH]c2cc1C [Example 072, 3-Amino-4-(7-fluoro-1H-indazol-4-yl)-6-(3-methoxy-3-methyl-but-1-ynyl)-7-methyl-1H-1,5-naphthyridin-2-one]
< 0.01 | Cc1cc(Cl)c2c(-c3ccc(F)c4[nH]ncc34)c(N)c(=O)[nH]c2c1 [Example 103, 3-Amino-5-chloro-4-(7-fluoro-1H-indazol-4-yl)-7-methyl-1H-quinolin-2-one]
0.0104 | Cc1cc2[nH]c(=O)c(N)c(-c3ccc(F)c4[nH]ncc34)c2nc1C1CC1 [Example 18, 3-Amino-6-cyclopropyl-4-(7-fluoro-1H-indazol-4-yl)-7-methyl-1H-1,5-naphthyridin-2-one]
